The source of these data is US5858410A, “Pharmaceutical nanosuspensions for medicament administration as systems with increased saturation solubility and rate of solution” (Medac Gesellschaft Fur Klinische Spezialpraparate, priority 1994, dated 1999).

Each structure is given as a SMILES string.

The data set can be described thus: Particle size of suspensions by PCS / laser diffractometer (LD). The format is physicochemical. An excerpt: Wet grinding has been employed as a further grinding technique (Sandell, E., Grundriss der Galenischen Pharmazie [Principles of galenical pharmacy], Govi-Verlag GmbH, Frankfurt am Main, 1962), for example using a Premier Mill (Sandell, loc. cit.) or a ball or pearl mill (Hagers Handbuch der pharmazeutischen Praxis [Hagers handbook of pharmaceutical practice], Springer-Verlag, Berlin, 1925). Although a main population of particles in the nanometer range results when a pearl mill is used, a significant proportion of particles larger than 1 μm is still present. […] RNXP 22 was ground (Dispermat) in a pearl mill without addition of surfactant (FIG. 2: A) and with addition of 3% Tween 80 (FIG. 2: A+surfactant). The 50% diameter of the surfactant-free sample is already approx. 2 μm, i.e. 50% of the particles are >2 μm. Some of these micrometer particles can be attributed to agglomeration. As described in the literature (Sandell, loc. cit.; P. H. List, Arzneiformenlehre [Drug forms], Wissenschaftliche Verlagsgesellschaft mbH Stuttgart, 1976; Sucker, H., Speiser, P., Fuchs, P., Pharmazeutische Technologie [Pharmaceutical technology], George Thieme Verlag Stuttgart, 1978; Munzel, K., Buchi, J., Schultz, O.-E., Galenisches Praktikum [Practical galenics], Wissenschaftliche Verlagsgesellschaft mbH Stuttgart, 1959), aggregation in suspensions can be prevented by addition of surfactants (Tween 80, Pluronic F 68) or generally stabilizers (e.g. polyvinylpyrrolidone--PVP, Pluronic F 68). […] As a rule, this is also recommended by manufacturers of mills (e.g. Dyno-Mill, A. Bachoffen AG Maschinenfabrik). Surfactant-stabilized microparticles have also been patented (U.S. Pat. No. 5,246,707), it also being possible for these additionally to comprise iron particles within the microparticles in order to allow location of the particles via magnetic fields.
Another preparation method which has been known for a long time is "via humida paratum", precipitation by pouring a solution of the active compound into a non-solvent (Hagers Handbuch der pharmazeutischen Praxis [Hagers handbook of pharmaceutical practice], Springer-Verlag, Berlin, 1925). By pouring into the non-solvent, the Ostwald Mie range is rapidly passed through and a very fine precipitate separates out. The particles which have precipitated out likewise have a significant proportion in the micrometer range. […] The drug was dissolved in ethanol (3%, 20 ml) and the solution poured into 100 ml of an aqueous surfactant solution (1.2% Pluronic F68). The end of the measuring range is 80 μm, and a large fraction between approx. 18 μm to 80 μm was detected.
The powdered drug (ground in an air jet, particles up to more than 25 μm) was rubbed in a grinding dish with a concentrated surfactant solution for wetting, and the remaining aqua dest. was then added, while stirring. Alternatively, the drug powder can also be introduced into a surfactant solution by stirring. […] The average particle diameter of the parent suspensions (=suspension with 0 cycles), measured with the laser diffractometer, and of the resulting nanosuspensions by PCS (PI=polydispersity index):
Preparation of the suspension and subsequent homogenization as in example 1. […] To monitor the decrease in the particles also in the size range from 1 μm to several μm as a function of the number of cycles, the samples were analysed with the LD. The results were evaluated by plotting the 99% diameter against the number of cycles (FIG. 6). […]

Where [1] appears, read: ground in an air jet, LD (FIG. 1).

`C[C@@H]1CN(c2nc(N(CCO)CC(C)(C)O)c3nc(-c4ccccc4)c(N4C[C@@H](C)O[C@@H](C)C4)nc3n2)C[C@H](C)O1` [RMKP 22, 4-[N-(2-hydroxy-2-methylpropyl)-ethanolamine]-2.7-bis(cis-2.6-dimethylmorpholin-4-yl)-6-phenyl-pteridine]: the “50% LD diameter” value (ground in a pearl mill, surfactant-free sample (FIG. 2: A)) was “approx. 2 μm”. Besides, under setting [1], the “particles >1 μm” value is listed as 92%, the “particles in the range below 1,000 nm” value came to 8% and the “particles smaller than 25 μm” value is on record as 100%. For the same molecule, where the note is “pearl mill, addition of 3% Tween 80 (FIG. 2: A+surfactant)”, the “effect of surfactant on diameters of the volume distribution” value is “only a slight reduction in the diameters of the volume distribution”.
